Earlier results on one compound are cited in patent US10751314B2, “Compositions comprising rumenic acid-rich conjugated linoleic acid for joint health” (STEPAN SPECIALTY PRODUCTS, LLC, priority 2016, dated 2020).

In one data set the test system is human epithelial cells. The conditions noted are these: via activation of PPARγ.
The subject of data set [1] is young men and women with birch pollen allergy. The conditions noted are these: 8 weeks of supplementation.
The next data set relates to PPARγ. Particulars: mouse macrophage cells.

As for `CCCCCC/C=C/C=C\CCCCCCCC(=O)O` [RA, cis-9, trans-11 linoleic acid], the Inflammatory responses result in the data set with human epithelial cells is given as “reduced inflammatory responses”. The “Allergic responses mediated by inflammation” value in data set [1] is given as “reduced”. Besides, in the data set with PPARγ, the Antioxidant activity result is given as “served as an antioxidant” and the PPARγ activation result is “activated”.
